From patent US20220323412A1, “EXTRACELLULAR VESICLE-FENRETINIDE COMPOSITIONS, EXTRACELLULAR VESICLE-C-KIT INHIBITOR COMPOSITIONS, METHODS OF MAKING AND USES THEREOF” (priority 2020, published 2022)

Experiments:
[1] = CellTiter-Huor Cell Viability Assay; type: cell-based; settings: human, ARPE-19 retinal pigment epithelium cells, read-out: cell viability or growth of untreated control
Experimental: EV-fenretinide was packaged and purified in a manner similar to the protocol described in Example 1. The extracellular vesicles used for packaging fenretinide was isolated from HEK293-F cells. A human retinal pigment epithelium (RPE) cell line, ARPE-19 (ATCC® CRL-2302™), isolated from normal eyes of an adult […], is treated with fenretinide alone or fenretinide-EV to examine the effect on viability of retinal pigment epithelium cells. ARPE-19 cells plated the night before were treated with fenretinide (resuspended in 100% DMSO) or fenretinide-EV (in PBS) at matched concentration of drug substance (active pharmaceutical ingredient (API)) dosed at either low (0.94 μM) or high (15 μM) fenretinide concentration. After 48 hrs at 37° C. in a humidified 5% CO2 incubator, cell viability is measured using CellTiter-Huor™ Cell Viability Assay (Promega) following the manufacturer's instructions to detect viable cells based on cell membrane integrity using a fluorogenic, cell-permeant, peptide substrate (Gly-Phe-AFC) which is cleaved to a fluorescent signal following entry into intact cells. The plate was read on plate reader at 380-400 nm excitation and —505 nm emission for live-cell fluorescence readout.

[2] = test system: MCF-7 breast cancer cells; assay: CellTiter-Glo Luminescent Cell Viability Assay; type: cell-based, human
Experimental: EV-fenretinide was packaged in a manner similar to the protocol described in Example 2. EV-fenretinide was dosed onto MCF-7 breast cancer cells using the exemplary protocol below. Cell viability was measured using the Promega CellTiter-Glo® Luminescent Cell Viability Assay—a method of determining the number of viable cells in culture based on quantitation of the ATP present, an indicator of metabolically active cells.
Protocol steps: • 1. MCF-7 cells were cultured in Dulbecco's Modified Eagle's Medium (DMEM) supplemented with 10% exosome-free fetal bovine serum (FBS) supplemented with penicillin-streptomycin-glutamine (PSG; 100 units/mL penicillin, 100 μg/mL streptomycin and 2 mM L-glutamine) for 1-2 passages. • 2. MCF-7 cells were harvested, washed, counted and resuspended in culture medium (DMEM supplemented with 10% exosome-free FBS and PSG) at 5E5 cells/mL. • 3. The MCF-7 cells were seeded at 5E4 cells in a volume of 100 μL/well of culture medium in a white polystyrene 96-well tissue culture plate and incubated for 18-20 hrs at 37° C./5% CO2 humidified incubator. • 4. After 18-20 hrs of incubation, medium was removed from the wells and replaced with culture medium containing test agents. […] The plate was shaken for two minutes and then left to equilibrate for 10 minutes prior to reading the luminescence on a microplate reader (iD3-Molecular Devices).

[3] = cited from earlier work
[4] = test system: CD-1 IGS mice; assay: Toxicology: serum and blood chemistry, complete blood count; type: in vivo, mouse
Experimental: Both arms were dosed via intravenous tail-vein injected at 0.23 mg/kg with a 4 mL/kg dose volume. The EV-fenretinide formulation was stored at −80° C. until injection into mice. Blood was collected at 2, 5, 10, 15, 30, 60, 120, 240, and 960 minutes, three mice were sacrificed at each time point, and tissue was collected at 30, 120 and 960 minutes. Spleen, liver, lung, kidney, brain and heart tissues were collected. Fenretinide amount in blood and tissue was measured via LC MS/MS mass spectrometry. Serum and hematology toxicology measurements were collected from the blood samples. Blood urea nitrogen (BUN), creatinine, and alanine aminotransferase were measured from serum.
Fenretinide-EVs and fenretinide-alone formulations were produced and dosed in the animal model as in Example 6. On the terminal blood draw of each animal, 20 μL of whole blood samples were used to measure complete blood count (CBC) on the Veterinary Hematology Analyzer (Hematrue, Heska).

[5] = DrugBank DB05076; cited from earlier work
[6] = Retention and biodistribution of fenretinide in eye after intravitreal injection; type: in vivo, brown Norway rat; settings: 24-hrs after intravitreal 5 μL per eye; 94.8 uM fenretinide-EV or 90.9 uM fenretinide alone
Experimental: Eye biodistribution of fenretinide formulated as 90.9 uM free fenretinide (excipient: 5% Ethanol, 12.5% Solutol-HS 15, 12.5% PEG 300, and 70% PBS) or 94.8 uM fenretinide-EV (in PBS) is administered to each eye of brown Norway rat (6 rats/treatment condition) by intravitreal injection (5 μL per eye). 24-hrs after administration, eyes were enucleated. Individual tissues were collected corresponding to cornea, conjunctiva, lens, vitreous humor, retina, RPE/choroid and sclera and analyzed for fenretinide content. In addition, total fenretinide content in each eye was also determined.

Row | percentage of fenretinide remaining in eyes [6] [%] | Compound | viability at 48 h, 0.94 μM ([1]; ARPE-19, 0.94 μM fenretinide equivalent) [%] | viability at 48 h, 15 μM ([1]; ARPE-19, 15 μM fenretinide equivalent) [%] | viability at 40 µM ([2]; Homo sapiens, MCF7, MCF-7, 40 μM fenretinide, 48 hours) [%] | effect on cell viability over concentration ([2]; MCF-7, 0.625-40 μM, most notable after about 10 μM) | solubility limit in water ([3]; water) | decrease in PLT (platelet concentration) versus Charles River general levels ([4]; 16 hrs after intravenous 0.2288 mg/kg) [fold] | adverse effects based on serum and blood chemistry results ([4]; intravenous 0.23 mg/kg) | logP [5] | solubility in water ([3]; Selleck Chem catalog)
1 | 7 | CC1=C(/C=C/C(C)=C/C=C/C(C)=C/C(=O)Nc2ccc(O)cc2)C(C)(C)CCC1 [Fenretinide, N[4-hydroxyphenyl]retinamide] | 85.5 | 31 | ~20 | dose-dependent cell viability inhibition | about 1.71 μg/mL | 5 | did not exert apparent adverse effects | greater than 6 | –
2 | – | Cc1nc(Nc2ncc(C(=O)Nc3c(C)cccc3Cl)s2)cc(N2CCN(CCO)CC2)n1 [dasatinib] | – | – | – | – | – | – | – | – | insoluble in water
